In US12472166B2, “Inhibition of mycobacterial type VII secretion” (priority 2019, dated 2025):

Columns and labels:
[1] = tested on: resistant M. tuberculosis strains; type: cell-based
[2] = tested on: M. tuberculosis overexpressing ethA; type: cell-based

## COc1ccc(-c2nsc(SCC(=O)NC3CCCC3)n2)cc1 [Compound I-12]
[1]
  concentration in presence of which resistant strains were grown: 80 µM
  increase compared to the susceptible WT strain: 64 fold
[2]
  increased susceptibility as compared to the parent WT strain: at least 4 fold

## O=C(CSc1nc(-c2ccccc2)no1)NC1CCCC1 [Compound I-28]
[2]
  activity in the ethA overexpression strain compared to WT M. tuberculosis: increased activity in the ethA overexpression strain

## O=C(CSc1nc(-c2ccccc2)no1)NC1CCCC1 [Compound I-31]
[2]
  activity in the ethA overexpression strain compared to WT M. tuberculosis: did not show an increased activity
